The results in this text go back to patent publication US11065231B2, “Compounds and methods for the targeted degradation of interleukin-1 receptor- associated kinase 4 polypeptides” (Arvinas Operations, Inc., priority 2017, dated 2021).

The target in experiment [1] is T1, IRAK4 (Homo sapiens (Human), UniProt Q9NWZ3). The experiment is described as follows: Biochemical Z'-Lyte FRET assay for IRAK4 kinase inhibition. To be noted: 2 nM enzyme, 1 mM ATP, 2 μM substrate. As for the experimental part:
Biochemical Assay for IRAK4 Kinase Inhibition.
A Z′-Lyte assay based on a fluorescence resonance energy transfer (FRET) readout was developed for measuring IRAK4-dependent phosphorylation of a FRET-peptide substrate as described by Thermo Fisher Scientific (Grand Island, N.Y.). At a starting concentration of 1.5 mM, the identified compounds were serially diluted with 100% dimethyl sulfoxide (DMSO) in 3-fold increments, into Greiner bio-one 96-well plates (cat. #: 650201, Greiner bio-one, Monroe, N.C.). Compounds were then transferred to intermediate Greiner bio-one 96-well plates and diluted 10-fold with Kinase assay buffer (25 mM HEPES, pH 7.5, 10 mM MgCl2, 10 mM MnCl2, 1 mM EGTA, and 0.01% Brij-35, 2 mM DTT). Three μL of the serially diluted compounds were then transferred in duplicate to low-volume 384-well black proxiplates (cat. #: 6008269; Perkin Elmer, Akron, Ohio), to give duplicate twelve-point concentration curves. Six μl of a 2.5× solution of IRAK4 enzyme (cat #: 40064, BPS Bioscience, San Diego, Calif.) in kinase buffer was added to each well, followed by a 10 minutes pre-incubation step. Reactions were initiated by adding 6 μl of a 2.5× substrate mix of ATP and Z′-Lyte Ser/Thr 7 peptide (cat. #: PV3180, Thermo Fisher Scientific, Grand Island, N.Y.) and proceeded at room temperature for 1 hour. The final concentration of key reagents in the 15 uL kinase reactions were 2 μM substrate, 2 nM enzyme, and 1 mM ATP, with dose responses starting at 30 μM compound. At the end of the kinase reactions, 5 μl of developing solution (as instructed in for cat. #: PV3180, Thermo Fisher Scientific, Grand Island, N.Y.) was added to each well and incubated at room temperature for 1 hour. All wells were read on an Envision 2105 Multilabel fluorescence plate reader (Perkin Elmer, Waltham, Mass.) at 400 nm excitation and 460 nm/530 nm emission. Plus and minus 100% inhibition controls were used to calculate percent inhibition and IC50 curves were generated using Graphpad Prism (La Jolla, Calif.).

Experiment [2] deals with T1, IRAK4. In words: Western blot assay for assessing degradation of IRAK4 in MCF7 cells. The format is cell-based. To be noted: Table 5, IRAK4 degradation, 24 hour incubation; for DC50: read-out: IRAK4 DC50; for Dmax: read-out: IRAK4 Dmax (%). As for the experimental part: Western Blot Assay for Assessing Degradation of IRAK4.
MCF7 cells, purchased from ATCC (Manassas, Va.), were used at a passage range of 2-19. Cells were seeded at 50% confluency in 96-well plates at 180 μl/well in cell media (Dulbecco's Modified Eagle medium/nutrient F-12 Ham-10% Fetal Bovine Serum) and incubated overnight. The next morning, compounds were serially diluted and added (20 μl into 180 μl media) at a final DMSO concentration of 0.1%. Cells were rinsed with cell media and replaced with compounds in media, followed by incubation overnight. After a 24 hour incubation with compound, cell were harvested (90-100% confluent at harvest). Cells were then washed once with 100 μl of Dulbecco's hosphate-buffered saline and then lysed with 40 μl of lysis buffer (1×RIPA+HALT protease inhibitor+HALT phosphatase inhibitor) on ice for 10 minutes. Lysates were then cleaned by filtration in 1.2 µm filter plates followed by western blotting. For each sample, 30 μl of lysate were added to 10 μl of 4×LDS sample buffer, then denatured at 95° C. for 5 minutes in the thermal cycler and placed on ice. Fifteen μL of each sample were then loaded on 4-15% Tris/Glycine gels and run for 25 minutes at 250 (constant) volts in 1× Tris/Glycine buffer. Protein was transferred from gels to nitrocellulose using a BioRad Turbo dry-transfer unit with the Turbo/midi default program. All blots were rinsed with ddH2O and blocked for 1 hour at room temperature in 5% bovine serum albumin (BSA) in tris-buffered saline-Tween 20 (TBS-T) (0.1%) on rocker. Blots were exposed to primary antibody in 5% BSA in TBS-T (0.1%) overnight at 4° C. on rocker. Primary antibodies, diluted 1:1000 in […], were as follows: anti-IRAK4 (cat. #: ab119942, Abcam, Cambridge, Mass.), anti-IRAK1 (cat. #: CST 4504S, Cell Signaling Technology, Danvers, Mass.), and anti-Beta-actin (Cat. #: ab8227, Abcam, Cambridge, Mass.). Blots were then washed with TBS-T (0.1%) three times for 5 minutes on a rocker at room temperature. Secondary antibody (1:18,000 anti-rabbit-HRP and/or anti-mouse-HRP in 5% BSA in TBST (0.1%) was then added, and blots incubated at room temperature rocker for 1 hour. Blots were washed 3 times in TBS-T (0.1%) for 5 minutes at room temperature on the rocker. Signal was developed with Femto Max substrate for 5 minutes and blots read on a ChemiDoc. Percent degradation was assessed by comparing IRAK4 signal in compound vs. DMSO treated lysates.
In general terms: A western blot detects proteins with antibodies after separation by electrophoresis.

T1 sequence (Q9NWZ3 whole entry): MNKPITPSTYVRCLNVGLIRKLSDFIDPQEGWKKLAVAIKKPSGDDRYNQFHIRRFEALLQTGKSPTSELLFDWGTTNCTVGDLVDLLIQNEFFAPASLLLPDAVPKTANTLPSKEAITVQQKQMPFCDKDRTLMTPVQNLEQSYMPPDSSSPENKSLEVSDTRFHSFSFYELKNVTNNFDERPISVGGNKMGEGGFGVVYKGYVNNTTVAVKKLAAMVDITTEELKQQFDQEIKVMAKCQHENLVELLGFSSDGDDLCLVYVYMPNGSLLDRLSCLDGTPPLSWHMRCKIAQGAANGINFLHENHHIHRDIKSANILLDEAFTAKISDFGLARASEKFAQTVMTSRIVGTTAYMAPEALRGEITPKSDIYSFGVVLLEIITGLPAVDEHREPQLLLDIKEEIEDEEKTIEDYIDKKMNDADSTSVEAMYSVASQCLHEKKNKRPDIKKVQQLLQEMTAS

As a reminder, the IC50 is the concentration that gives 50% inhibition. The low end stands for greater potency, the high end for weaker potency. The DC50 is the midpoint of the concentration-degradation curve. As for `N#Cc1ccc2ncnc(N[C@H]3CC[C@H](N4CCN(S(=O)(=O)CCOCCOCCOc5ccc6c(c5)C(=O)N(C5CCC(=O)NC5=O)C6=O)CC4)CC3)c2c1` (stereo partly shown) [compound 36], the IC50 in experiment [1] was at least 1000 nM. For the same molecule, the DC50 in experiment [2] is at least 1000 nM.
As for `Cc1ccc(-n2nc(N3CCN(CCOCCOCCOCCOc4ccc5c(c4)C(=O)N(C4CCC(=O)NC4=O)C5=O)CC3)cc2NC(=O)c2cnn3cccnc23)nc1` (stereo not shown) [compound 26, N-(3-(4-(2-(2-(2-(2-((2-(2,6-dioxopiperidin-3-yl)-1,3-dioxoisoindolin-5-yl)oxy)ethoxy)ethoxy)ethoxy)ethyl)piperazin-1-yl)-1-(5-methylpyridin-2-yl)-1H-pyrazol-5-yl)pyrazolo[1,5-a]pyrimidine-3-caboxamide], the IC50 in experiment [1] fell in the range of 300 to 1000 nM. Also, the DC50 in experiment [2] was at least 1000 nM.
“N-(1-(3-((2-(2,6- dioxopiperidin-3-yl)-1,3- dioxoisoindolin-5- yl)oxy)ethyl)(methyl)amino) phenyl)-5-(piperadin-1- yl)methyl)-1H- benzo[d]imidazol-2-yl)-3- (trifluoromethyl)benzamide [compound 68]” yielded an IC50 in experiment [1] of at least 1000 nM. Further, in experiment [2], the “IRAK4 Dmax (%)” value is given as “C (50 ≥ C > 30)” and the DC50 was in the range of 300 to 1000 nM.
Turning to `CN(CCOCCOCCOc1ccc2c(c1)C(=O)N(C1CCC(=O)NC1=O)C2=O)c1cccc(-n2c(NC(=O)c3cccc(C(F)(F)F)c3)nc3cc(F)ccc32)c1` (stereo not shown) [compound 49, N-(1-(3-((2-(2-(2-((2-(2,6-dioxopiperidin-3-yl)-1,3-dioxoisoindolin-5-yl)oxy)ethoxy)ethoxy)ethyl) (methyl)amino)phenyl)-5-fluoro-1H-benzo[d]imidazol-2-yl)-3-(trifluoromethyl)benzamide], in experiment [1], the IC50 is at least 1000 nM. Besides, the DC50 in experiment [2] is at least 1000 nM.
`N#Cc1ccc2ncnc(N[C@H]3CC[C@@H](N4CCN(S(=O)(=O)CCOCCOCCOCCOc5ccc6c(c5)C(=O)N(C5CCC(=O)NC5=O)C6=O)CC4)CC3)c2c1` (stereo partly shown) [compound 39] came in with a concentration for half-maximal inhibition (IC50) in experiment [1] of at least 1000 nM.
In general, Dmax refers to the greatest extent of degradation seen. As to `O=C1CCC(N2C(=O)c3ccc(OCCN4CCC(CN5CCN(Cc6ccc7c(c6)nc(NC(=O)c6cccc(C(F)(F)F)c6)n7C6CCC(CO)CC6)CC5)CC4)cc3C2=O)C(=O)N1` (stereo not shown) [compound 10], in experiment [2], the Dmax was above 70%.
In experiment [1], `COc1cc2nn(C3CCN(CCOCCOCCOCCNc4cccc5c4C(=O)N(C4CCC(=O)NC4=O)C5=O)CC3)cc2cc1NC(=O)c1cccc(C(F)(F)F)n1` (stereo not shown) [compound 64, N-(2-(1-(2-(2-(2-(2-((2-(2,6-dioxopiperidin-3-yl)-1,3-dioxoisoindolin-4-yl)amino)ethoxy)ethoxy)ethoxy)ethyl)piperadin-4-yl)-6-methoxy-2H-indazol-5-yl)-6-(trifluoromethyl)picolinamide] gave an IC50 below 30 nM.
In experiment [1], `N#Cc1ccc2ncnc(N[C@H]3CC[C@@H](N4CCN(S(=O)(=O)CCOCCOCCOc5ccc6c(c5)C(=O)N(C5CCC(=O)NC5=O)C6=O)CC4)CC3)c2c1` (stereo partly shown) [compound 37] displayed an IC50 of at least 1000 nM.
On the same count and under the same terms, in the case of `COc1cc2nn(C3CCN(CCOCCOCCNc4cccc5c4C(=O)N(C4CCC(=O)NC4=O)C5=O)CC3)cc2cc1NC(=O)c1cccc(C(F)(F)F)n1` (stereo not shown) [compound 62, N-(2-(1-(2-(2-(2-((2-(2,6-dioxopiperidin-3-yl)-1,3-dioxoisoindolin-4-yl)amino)ethoxy)ethoxy)ethyl)piperadin-4-yl)-6-methoxy-2H-indazol-5-yl)-6-(trifluoromethyl)picolinamide] it was below 30 nM.
Still for that read-out and setting: in the case of `O=C1CCC(N2C(=O)c3ccc(OCCOC[C@H]4CC[C@@H](n5c(NC(=O)c6cccc(C(F)(F)F)c6)nc6cc(F)ccc65)CC4)cc3C2=O)C(=O)N1` (stereo partly shown) [compound 45] it was at least 1000 nM; in that of `N#Cc1ccc2ncnc(N[C@H]3CC[C@H](N4CCN(S(=O)(=O)CCOCCOCCOCCOc5ccc6c(c5)C(=O)N(C5CCC(=O)NC5=O)C6=O)CC4)CC3)c2c1` (stereo partly shown) [compound 38], at least 1000 nM.
Consider `O=C1CCC(N2C(=O)c3ccc(OCCOCCOCCOCC4CCC(n5c(NC(=O)c6cccc(C(F)(F)F)c6)nc6cc(CN7CCCCC7)ccc65)CC4)cc3C2=O)C(=O)N1` (stereo not shown) [compound 43, N-(1-((1s,4s)-4-((2-(2-(2-((2-(2,6-dioxopiperidin-3-yl)-1,3-dioxoisoindolin-5-yl)oxy)ethoxy)ethoxy)ethoxy)methyl)cyclohexyl)-5-(piperidin-1-ylmethyl)-1H-benzo[d]imidazol-2-yl)-3-(trifluoromethyl)benzamide], for which, in experiment [2], the DC50 was at least 1000 nM.
Consider `O=C1CCC(N2C(=O)c3cccc(NCCOCCOCCN4CCN(Cc5ccc6c(c5)nc(NC(=O)c5cccc(C(F)(F)F)c5)n6C5CCC(CO)CC5)CC4)c3C2=O)C(=O)N1` (stereo not shown) [compound 66, N-(5-((4-(2-(2-(2-((2-(2,6-dioxopiperidin-3-yl)-1,3-dioxoisoindolin-4-yl)amino)ethoxy)ethoxy)ethyl)piperazin-1-yl)methyl)-1-((1s,4s)-4-(hydroxymethyl)cyclohexyl)-1H-benzo[d]imidazol-2-yl)-3-(trifluoromethyl)benzamide], for which, in experiment [2], the Dmax was in the range of 50 to 70%.
As to `O=C1CCC(N2C(=O)c3ccc(OC4CCC(CN5CCN(Cc6ccc7c(c6)nc(NC(=O)c6cccc(C(F)(F)F)c6)n7C6CCC(CO)CC6)CC5)CC4)cc3C2=O)C(=O)N1` (stereo not shown) [compound 67, N-(5-((4-((4-((2-(2,6-dioxopiperidin-3-yl)-1,3-dioxoisoindolin-5-yl)oxy)cycloethyl)methyl)piperazin-1-yl)methyl)-1-((1s,4s)-4-(hydroxymethyl)cyclohexyl)-1H-benzo[d]imidazol-2-yl)-3-(trifluoromethyl)benzamide], in experiment [2], the DC50 is 30 to 100 nM and the Dmax was above 70%.
On to `O=C1CCC(N2C(=O)c3ccc(OCCN4CCN(Cc5ccc6c(c5)nc(NC(=O)c5cccc(C(F)(F)F)c5)n6C5CCC(CO)CC5)CC4)cc3C2=O)C(=O)N1` (stereo not shown) [compound 1, N-(5-((4-(2-((2-(2,6-dioxopiperidin-3-yl)-1,3-dioxoisoindolin-5-yl)oxy)ethyl)piperazin-1-yl)methyl)-1-((1s,4s)-4-(hydroxymethyl)cyclohexyl)-1H-benzo[d]imidazol-2-yl)-3-(trifluoromethyl)benzamide], for which the Dmax in experiment [2] is 30 to 50%.
Turning to `COc1cccc(-n2c(NC(=O)c3cccc(C(F)(F)F)c3)nc3cc(CN4CCN(CCOCCOc5ccc6c(c5)C(=O)N(C5CCC(=O)NC5=O)C6=O)CC4)ccc32)c1` (stereo not shown) [compound 57, N-(5-((4-(2-(2-((2-(2,6-dioxopiperidin-3-yl)-1,3-dioxoisoindolin-5-yl)oxy)ethoxy)ethyl)piperazin-1-yl)methyl)-1-(3-methoxyphenyl)-1H-benzo[d]imidazol-2-yl)-3-(trifluoromethyl)benzamide], the IC50 in experiment [1] was at least 1000 nM.
